Patent US7803930B2, “Antisense modulation of apolipoprotein B-expression” (Isis Pharmaceuticals, Inc., priority 2002, dated 2010)
In the oligonucleotide strings, read from the 5' end, every base follows the letter of its sugar. An asterisk marks phosphorothioate; unmarked linkages are phosphodiester. Other units and linkages are bracketed, terminal groups are in braces. A string of capitals states the bases alone. e = 2'-O-(2-methoxyethyl) (MOE); [5mC] = 5-methylcytosine; d = 2'-deoxy (DNA)

Test system: human apolipoprotein B mRNA
Assay: Inhibition of human apolipoprotein B mRNA levels in HepG2 cells, quantitative real-time PCR
Type: cell-based
Conditions: HepG2 cells; human apolipoprotein B mRNA; oligonucleotides targeting genomic sequence SEQ ID NO 334; averages from two experiments
Summary of the method: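 Apolipoprotein B transcript was quantified by one-step TaqMan RT-PCR, normalized to GAPDH or RiboGreen RNA, and expressed as percent inhibition against an untreated-sample standard curve. HepG2 cells were harvested 16-24 h after oligonucleotide exposure, which was delivered with 3.75 μg/mL Lipofectin over 4-7 h at 80% confluency.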

Row | Substance | % INHIB [%]
1 | 301149 (eA*eG*e[5mC]*eA*eT*dA*dT*dT*dT*dT*dG*dA*dT*dG*dA*eG*e[5mC]*eT*eG*eA; antisense) [compound 301149] | 44
2 | 301150 (eG*eA*eA*eA*eG*dG*dA*dA*dG*dG*dA*d[5mC]*dT*dA*dG*e[5mC]*eA*eT*eA*eT; antisense) [compound 301150] | 39
3 | 301151 (e[5mC]*e[5mC]*eT*e[5mC]*eT*d[5mC]*d[5mC]*dA*dA*dT*d[5mC]*dT*dG*dT*dA*eG*eA*e[5mC]*e[5mC]*e[5mC]; antisense) [compound 301151] | 28
4 | 301152 (e[5mC]*eT*eG*eG*eA*dT*dA*dA*d[5mC]*dT*d[5mC]*dA*dG*dA*d[5mC]*e[5mC]*eT*eT*eT*eG; antisense) [compound 301152] | 40
5 | 301153 (eA*eG*eT*e[5mC]*eA*dG*dA*dA*dA*dA*d[5mC]*dA*dA*d[5mC]*d[5mC]*eT*eA*eT*eT*e[5mC]; antisense) [compound 301153] | 11
6 | 301154 (e[5mC]*eA*eG*e[5mC]*e[5mC]*dT*dG*d[5mC]*dA*dT*d[5mC]*dT*dA*dT*dA*eA*eG*eT*e[5mC]*eA; antisense) [compound 301154] | 31
7 | 301155 (eA*eA*eA*eG*eA*dA*dT*dT*dA*d[5mC]*d[5mC]*d[5mC]*dT*d[5mC]*d[5mC]*eA*e[5mC]*eT*eG*eA; antisense) [compound 301155] | 33
8 | 301156 (eT*e[5mC]*eT*eT*eT*d[5mC]*dA*dA*dA*d[5mC]*dT*dG*dG*d[5mC]*dT*eA*eG*eG*e[5mC]*eA; antisense) [compound 301156] | 39
9 | 301157 (eG*e[5mC]*e[5mC]*eT*eG*dG*d[5mC]*dA*dA*dA*dA*dT*dT*d[5mC]*dT*eG*e[5mC]*eA*eG*eG; antisense) [compound 301157] | 37
10 | 301158 (e[5mC]*eT*eA*e[5mC]*e[5mC]*dT*d[5mC]*dA*dA*dA*dT*d[5mC]*dA*dA*dT*eA*eT*eG*eT*eT; antisense) [compound 301158] | 28
11 | 301159 (eT*eG*e[5mC]*eT*eT*dT*dA*d[5mC]*d[5mC]*dT*dA*d[5mC]*d[5mC]*dT*dA*eG*e[5mC]*eT*eA*e[5mC]; antisense) [compound 301159] | 36
12 | 301160 (eA*e[5mC]*e[5mC]*eT*eT*dG*dT*dG*dT*dG*dT*d[5mC]*dT*d[5mC]*dA*e[5mC]*eT*e[5mC]*eA*eA; antisense) [compound 301160] | 49
13 | 301161 (eA*eT*eG*e[5mC]*eA*dT*dT*d[5mC]*d[5mC]*d[5mC]*dT*dG*dA*d[5mC]*dT*eA*eG*e[5mC]*eA*e[5mC]; antisense) [compound 301161] | 34
14 | 301162 (antisense e[5mC]*eA*eT*e[5mC]*eT*d[5mC]*dT*dG*dA*dG*d[5mC]*d[5mC]*d[5mC]*d[5mC]*dT*eT*eA*e[5mC]*e[5mC]*eA) [compound 301162] | 24
15 | 301163 (antisense eG*e[5mC]*eT*eG*eG*dG*d[5mC]*dA*dT*dG*d[5mC]*dT*d[5mC]*dT*d[5mC]*eT*e[5mC]*e[5mC]*e[5mC]*e[5mC]) [compound 301163] | 51
16 | 301164 (antisense eG*e[5mC]*eT*eT*eT*d[5mC]*dG*d[5mC]*dA*dG*d[5mC]*dT*dG*dG*dG*e[5mC]*eA*eT*eG*e[5mC]) [compound 301164] | 55
17 | 301165 (antisense eA*e[5mC]*eT*e[5mC]*e[5mC]*dT*dT*dT*d[5mC]*dT*dA*dT*dA*d[5mC]*d[5mC]*eT*eG*eG*e[5mC]*eT) [compound 301165] | 47
18 | 301166 (antisense eA*eT*eT*e[5mC]*eT*dG*d[5mC]*d[5mC]*dT*d[5mC]*dT*dT*dA*dG*dA*eA*eA*eG*eT*eT) [compound 301166] | 38

Row | Substance | % INHIB [%]
19 | 301167 (antisense e[5mC]*e[5mC]*eA*eA*eG*d[5mC]*d[5mC]*dT*d[5mC]*dT*dT*dT*dA*d[5mC]*dT*eG*eG*eG*e[5mC]*eT) [compound 301167] | 29
20 | 301168 (antisense e[5mC]*eA*e[5mC]*eT*e[5mC]*dA*dT*dG*dA*d[5mC]*d[5mC]*dA*dG*dA*d[5mC]*eT*eA*eA*eG*eA) [compound 301168] | 35
21 | 301169 (antisense eA*e[5mC]*e[5mC]*eT*e[5mC]*d[5mC]*d[5mC]*dA*dG*dA*dA*dG*d[5mC]*d[5mC]*dT*eT*e[5mC]*e[5mC]*eA*eT) [compound 301169] | 22
22 | 301170 (antisense eT*eT*e[5mC]*eA*eT*dA*dT*dG*dA*dA*dA*dT*d[5mC]*dT*d[5mC]*e[5mC]*eT*eA*e[5mC]*eT) [compound 301170] | 40
23 | 301171 (antisense eT*eA*eT*eT*eT*dA*dA*dT*dT*dT*dA*d[5mC]*dT*dG*dA*eG*eA*eA*eA*e[5mC]) [compound 301171] | 7
24 | 301172 (antisense eT*eA*eA*eT*eG*dT*dG*dT*dT*dG*d[5mC]*dT*dG*dG*dT*eG*eA*eA*eG*eA) [compound 301172] | 35
25 | 301173 (antisense e[5mC]*eA*eT*e[5mC]*eT*d[5mC]*dT*dA*dA*d[5mC]*d[5mC]*dT*dG*dG*dT*eG*eT*e[5mC]*e[5mC]*e[5mC]) [compound 301173] | 21
26 | 301174 (antisense eG*eT*eG*e[5mC]*e[5mC]*dA*dT*dG*d[5mC]*dT*dA*dG*dG*dT*dG*eG*e[5mC]*e[5mC]*eA*eT) [compound 301174] | 37
27 | 301175 (antisense eA*eG*e[5mC]*eA*eA*dA*dT*dT*dG*dG*dG*dA*dT*d[5mC]*dT*eG*eT*eG*e[5mC]*eT) [compound 301175] | 29
28 | 301176 (antisense eT*e[5mC]*eT*eG*eG*dA*dG*dG*d[5mC]*dT*d[5mC]*dA*dG*dA*dA*eA*e[5mC]*eA*eT*eG) [compound 301176] | 57
29 | 301177 (antisense eT*eG*eA*eA*eG*dA*d[5mC]*dA*dG*dG*dG*dA*dG*d[5mC]*d[5mC]*eA*e[5mC]*e[5mC]*eT*eA) [compound 301177] | 40
30 | 301178 (antisense eA*eG*eG*eA*eT*dT*d[5mC]*d[5mC]*d[5mC]*dA*dA*dG*dA*d[5mC]*dT*eT*eT*eG*eG*eA) [compound 301178] | 38
31 | 301179 (antisense e[5mC]*eA*eG*e[5mC]*eT*d[5mC]*dT*dA*dA*dT*d[5mC]*dT*dA*dA*dA*eG*eA*e[5mC]*eA*eT) [compound 301179] | 22
32 | 301180 (antisense eG*eA*eA*eT*eA*d[5mC]*dT*d[5mC]*dA*d[5mC]*d[5mC]*dT*dT*d[5mC]*dT*eG*e[5mC]*eT*eT*eG) [compound 301180] | 6
33 | 301181 (antisense eA*eT*e[5mC]*eT*e[5mC]*dT*d[5mC]*dT*dG*dT*d[5mC]*d[5mC]*dT*d[5mC]*dA*eT*e[5mC]*eT*eT*e[5mC]) [compound 301181] | 28
34 | 301182 (antisense e[5mC]*e[5mC]*eA*eA*e[5mC]*dT*d[5mC]*d[5mC]*d[5mC]*d[5mC]*d[5mC]*dT*dT*dT*d[5mC]*eT*eT*eT*eG*eT) [compound 301182] | 37
35 | 301183 (antisense eT*e[5mC]*eT*eG*eG*dG*d[5mC]*d[5mC]*dA*dG*dG*dA*dA*dG*dA*e[5mC]*eA*e[5mC]*eG*eA) [compound 301183] | 68
